Tested on: transient lower esophageal sphincter relaxations (TLESRs)
Assay: Screening for compounds active against TLESR (motility measurement in dogs)
Type: in vivo, Adult Labrador retrievers (dog)
Settings: vs five preceding control experiments for each dog
Method: Adult Labrador retrievers of both genders, trained to stand in a Pavlov sling, are used. Mucosa-to-skin esophagostomies are formed and the dogs are allowed to recover completely before any experiments are done.
In brief, after fasting for approximately 17 h with free supply of water, a multilumen sleeve/sidehole assembly (Dentsleeve, Adelaide, South Australia) is introduced through the esophagostomy to measure gastric, lower esophageal sphincter (LES) and esophageal pressures. The assembly is perfused with water using a low-compliance manometric perfusion pump (Dentsleeve, Adelaide, South Australia). An air-perfused tube is passed in the oral direction to measure swallows, and an antimony electrode monitored pH, 3 cm above the LES. All signals are amplified and acquired on a personal computer at 10 Hz.
When a baseline measurement free from fasting gastric/LES phase III motor activity has been obtained, placebo (0.9% NaCl) or test compound is administered intravenously (i.v., 0.5 ml/kg) in a foreleg vein. Ten min after i.v. administration, a nutrient meal (10% peptone, 5% D-glucose, 5% Intralipid, pH 3.0) is infused into the stomach through the central lumen of the assembly at 100 ml/min to a final volume of 30 ml/kg. Immediately following the meal, air is insufflated at 40 ml/min. The experimental time from start of nutrient infusion to end of air insufflation is 45 min. The procedure has been validated as a reliable means of triggering TLESRs.
TLESRs is defined as a decrease in lower esophageal sphincter pressure (with reference to intragastric pressure) at a rate of >1 mmHg/s. The relaxation should not be preceded by a pharyngeal signal ≦2 s before its onset in which case the relaxation is classified as swallow-induced. The pressure difference between the LES and the stomach should be less than 2 mmHg, and the duration of the complete relaxation longer than 1 s.
The aminoalkylindole cannabinoid WIN 55,212-2, purchased from Tocris Cookson (Bristol, U.K.), was tested on Adult Labrador retrievers of both genders in accordance with the test model described above.
Inhibition of the number of TLESRs was calculated with regard to the five preceding control experiments for each dog, and the results as set out in Table 1 below were achieved.

COc1ccc2c(c1)c(CCN1CCOCC1)c(C)n2C(=O)c1cccc(Cl)c1Cl [L-768,242, (2,3-dichloro-phenyl)-[5-methoxy-2-methyl-3-(2-morpholin-4-yl-ethyl)-indol-1-yl]-methanone]
% INHIBITION ± SEM (N) of the number of TLESRs (dose 0.3 μmol/kg i.v.): 8 ± 21 (4) % | % INHIBITION ± SEM (N) of the number of TLESRs (dose 1 μmol/kg i.v.): 44 ± 6 (5) % | % INHIBITION ± SEM (N) of the number of TLESRs (dose 5 μmol/kg i.v.): 63 ± 5 (4) % | % INHIBITION ± SEM (N) of the number of TLESRs (dose 7 μmol/kg i.v.): 76 ± 12 (3) %

Cc1c(C(=O)NN2CCCCC2)nn(-c2ccc(Cl)cc2Cl)c1-c1ccc(Cl)cc1 [SR141716A]
% STIMULATION ± SEM (N) of the number of TLESRs (dose 0.22 μmol/kg i.v.): 43 ± 16 (6) %

Cc1c(C(=O)c2cccc3ccccc23)c2cccc3c2n1[C@H](CN1CCOCC1)CO3 [WIN 55,212-2, (2-methyl-3-morpholin-4-ylmethyl-3,4-dihydro-5-oxa-2a-aza-acenaphthylen-1-yl)-naphthalen-1-yl-methanone]
% INHIBITION ± SEM (N) of the number of TLESRs (dose 0.003 mg/kg i.v.): 20 ± 18 (4) % | % INHIBITION ± SEM (N) of the number of TLESRs (dose 0.01 mg/kg i.v.): 70 ± 10 (4) % | % INHIBITION ± SEM (N) of the number of TLESRs (dose 0.03 mg/kg i.v.): 82 ± 1 (4) %
